Results taken from PMC4175000 (Journal of Medicinal Chemistry, 2014).
Blank lines part the entries; values can stand above or below the compound they belong to.

Tests used:
human M5 receptors = target: T1, human M5 receptors (Homo sapiens, UniProt P08912); assay: hM5 PAM calcium mobilization assay; assay type: cell-based; conditions: for improvement in hM5 PAM EC50 over the naked phenylsulfonamide: versus 6a
T1 sequence (P08912 1-532): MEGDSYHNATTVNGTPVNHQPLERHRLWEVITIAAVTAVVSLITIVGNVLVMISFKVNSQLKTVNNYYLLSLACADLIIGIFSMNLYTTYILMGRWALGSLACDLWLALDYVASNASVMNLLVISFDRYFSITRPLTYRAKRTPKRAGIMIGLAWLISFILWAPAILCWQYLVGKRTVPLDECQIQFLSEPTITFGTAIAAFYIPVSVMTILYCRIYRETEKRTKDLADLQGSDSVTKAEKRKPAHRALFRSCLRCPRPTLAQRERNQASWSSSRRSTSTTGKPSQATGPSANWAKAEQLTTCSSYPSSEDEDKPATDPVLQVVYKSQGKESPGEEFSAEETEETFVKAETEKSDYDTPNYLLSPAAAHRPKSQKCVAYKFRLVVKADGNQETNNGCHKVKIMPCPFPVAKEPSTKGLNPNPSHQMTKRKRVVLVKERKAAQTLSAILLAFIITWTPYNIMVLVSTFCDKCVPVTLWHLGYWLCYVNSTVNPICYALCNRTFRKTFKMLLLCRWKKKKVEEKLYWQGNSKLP

hM5 receptor [1] = target: T2, hM5 receptor (Homo sapiens, UniProt P08912); assay: ACh CRC fold shift, calcium mobilization; assay type: cell-based; conditions: compound at 10 μM; leftward shift in ACh potency at hM5; average ± SEM, n = 3–4
T2 sequence (P08912 1-532): T1 sequence (P08912 1-532)

[2] = in vitro metabolite identification; assay type: in vitro ADME
hM3 = hM3 (Homo sapiens, UniProt P20309); assay: muscarinic selectivity calcium mobilization, hM3; assay type: cell-based; conditions: hM5 versus hM3 PAM potency
[3] = hepatic microsomal intrinsic clearance, rat; assay type: in vitro ADME
hM5 receptor [4] = target: T2, hM5 receptor; assay: [3H]NMS competition binding, hM5 CHO membranes; conditions: 0.3 nM [3H]NMS
hM4 = target: T3, hM4 (Homo sapiens, UniProt P08173); assay: muscarinic selectivity calcium mobilization, hM4/Gqi5; assay type: cell-based; conditions: CHO hM4/Gqi5
T3 sequence (P08173 1-479): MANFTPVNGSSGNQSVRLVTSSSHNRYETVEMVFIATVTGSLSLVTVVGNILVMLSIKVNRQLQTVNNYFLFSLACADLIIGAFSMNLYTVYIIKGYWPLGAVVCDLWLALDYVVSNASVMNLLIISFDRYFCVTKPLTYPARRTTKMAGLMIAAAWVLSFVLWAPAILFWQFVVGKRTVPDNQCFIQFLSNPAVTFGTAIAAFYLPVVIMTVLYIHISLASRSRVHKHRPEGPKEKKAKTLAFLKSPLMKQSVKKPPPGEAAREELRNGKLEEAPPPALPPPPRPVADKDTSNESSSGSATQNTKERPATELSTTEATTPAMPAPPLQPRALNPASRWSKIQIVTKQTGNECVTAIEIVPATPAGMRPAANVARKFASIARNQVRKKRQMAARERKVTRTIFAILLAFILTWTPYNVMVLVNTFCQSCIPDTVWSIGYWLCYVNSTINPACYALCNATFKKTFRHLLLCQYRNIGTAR

[5] = hepatic microsomal intrinsic clearance, human; assay type: in vitro ADME
hM2 = target: T4, hM2 (Homo sapiens, UniProt P08172); assay: muscarinic selectivity calcium mobilization, hM2/Gqi5; assay type: cell-based; conditions: CHO hM2/Gqi5
T4 sequence (P08172 1-466): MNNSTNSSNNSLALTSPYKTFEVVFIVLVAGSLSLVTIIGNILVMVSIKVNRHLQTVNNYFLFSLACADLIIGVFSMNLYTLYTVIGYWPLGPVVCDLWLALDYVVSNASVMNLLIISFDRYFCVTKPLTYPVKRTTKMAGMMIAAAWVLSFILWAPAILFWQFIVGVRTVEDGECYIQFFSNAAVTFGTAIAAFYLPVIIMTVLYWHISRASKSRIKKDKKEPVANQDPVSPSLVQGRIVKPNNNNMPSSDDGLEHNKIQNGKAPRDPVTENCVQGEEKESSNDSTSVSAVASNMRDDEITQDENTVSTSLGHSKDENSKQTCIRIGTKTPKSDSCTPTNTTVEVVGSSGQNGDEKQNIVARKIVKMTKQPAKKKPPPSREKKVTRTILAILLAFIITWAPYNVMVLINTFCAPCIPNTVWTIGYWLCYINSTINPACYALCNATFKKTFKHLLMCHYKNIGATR

hM1 = target: T5, hM1 (Homo sapiens, UniProt P11229); assay: muscarinic selectivity calcium mobilization, hM1; assay type: cell-based; conditions: hM5 versus hM1 PAM potency
T5 sequence (P11229 1-460): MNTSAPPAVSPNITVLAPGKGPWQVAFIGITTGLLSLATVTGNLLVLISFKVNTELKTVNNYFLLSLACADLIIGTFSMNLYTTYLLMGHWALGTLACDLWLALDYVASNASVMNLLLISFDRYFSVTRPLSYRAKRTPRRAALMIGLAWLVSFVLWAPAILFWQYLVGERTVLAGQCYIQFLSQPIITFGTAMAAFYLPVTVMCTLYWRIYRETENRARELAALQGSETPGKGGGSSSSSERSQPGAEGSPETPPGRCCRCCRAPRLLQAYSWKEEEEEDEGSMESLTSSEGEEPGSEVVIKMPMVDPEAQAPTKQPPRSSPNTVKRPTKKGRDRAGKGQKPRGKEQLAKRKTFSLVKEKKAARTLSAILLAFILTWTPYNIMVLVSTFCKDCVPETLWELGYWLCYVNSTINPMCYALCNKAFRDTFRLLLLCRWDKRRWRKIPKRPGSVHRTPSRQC

hM3, sequence (P20309 whole entry): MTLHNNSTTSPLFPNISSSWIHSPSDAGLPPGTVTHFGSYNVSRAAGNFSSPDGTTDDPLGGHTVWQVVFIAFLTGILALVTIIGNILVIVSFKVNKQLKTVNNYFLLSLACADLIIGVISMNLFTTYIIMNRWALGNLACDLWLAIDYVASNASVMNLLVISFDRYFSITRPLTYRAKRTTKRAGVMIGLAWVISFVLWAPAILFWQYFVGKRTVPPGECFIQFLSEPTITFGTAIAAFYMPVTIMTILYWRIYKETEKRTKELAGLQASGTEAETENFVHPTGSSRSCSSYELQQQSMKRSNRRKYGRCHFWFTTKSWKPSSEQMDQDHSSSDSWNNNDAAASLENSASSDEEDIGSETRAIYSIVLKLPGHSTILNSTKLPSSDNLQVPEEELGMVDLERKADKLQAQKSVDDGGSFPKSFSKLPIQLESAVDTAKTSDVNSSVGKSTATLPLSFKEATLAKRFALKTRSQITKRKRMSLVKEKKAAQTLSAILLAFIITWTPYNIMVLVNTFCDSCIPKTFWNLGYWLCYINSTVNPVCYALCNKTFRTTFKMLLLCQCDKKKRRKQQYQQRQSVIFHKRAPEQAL

improvement in hM5 PAM EC50 over the naked phenylsulfonamide (human M5 receptors): approximately 3 fold
Compound: CCN(Cc1ccccc1)C(=O)C1CCN(S(=O)(=O)c2ccc3occc3c2)CC1 [6o]

improvement in hM5 PAM EC50 over the naked phenylsulfonamide (human M5 receptors): approximately 3 fold
Compound: CCN(Cc1ccccc1)C(=O)C1CCN(S(=O)(=O)c2ccc3[nH]ncc3c2)CC1 [6p]

improvement in hM5 PAM EC50 over the naked phenylsulfonamide (human M5 receptors): approximately 3 fold
Compound: CCN(Cc1ccccc1)C(=O)C1CCN(S(=O)(=O)c2ccc3cn[nH]c3c2)CC1 [6q]

improvement in hM5 potency relative to des-methyl analog 6b (human M5 receptors): 3 fold
ACh fold shift (hM5 receptor [1]): 7- to 12 fold
Compound: CCN(C(=O)C1CCN(S(=O)(=O)c2ccc(OC)cc2)CC1)[C@H](C)c1ccccc1 [7b]

ACh fold shift (hM5 receptor [1]): 7- to 12 fold
Compound: CCN(C(=O)C1CCN(S(=O)(=O)c2ccc3[nH]ncc3c2)CC1)[C@H](C)c1ccccc1 [7g]
primary site of metabolism [2]: N-ethyl moiety as the primary site of metabolism

ACh fold shift (hM5 receptor [1]): 7- to 12 fold
Compound: CCN(Cc1ccccc1C(F)(F)F)C(=O)C1CCN(S(=O)(=O)c2ccc3cn[nH]c3c2)CC1 [8j]

Compound: CCN(Cc1ccccc1C(F)(F)F)C(=O)C1CCN(S(=O)(=O)c2ccc3[nH]ncc3c2)CC1 [8n, 1-((1H-Indazol-5-yl)sulfonyl)-N-ethyl-N-(2-(trifluoromethyl)benzyl)piperidine-4-carboxamide]
selectivity over hM3 (hM3): greater than 10 fold
hepatic microsomal intrinsic clearance CLint ([3]; rat): 2600 mL min^–1 kg^–1
predicted hepatic clearance CLhep ([3]; rat): 68 mL min^–1 kg^–1
CLint scaled at 1 µM ([3]; rat, liver microsomes, pH 7.4): 2600 mL/min/kg
predicted CLhep (mL/min/kg) ([3]; rat, well-stirred model from CLint, not corrected for fu plasma): rat: 68 mL/min/kg
effect on [3H]NMS binding (in words) (hM5 receptor [4]): no inhibitory effect
hM5 PAM potency relative to des-CF3 congener 6p (human M5 receptors; more potent): 8 fold
activity at hM4 (in words) (hM4): no activity
hepatic microsomal intrinsic clearance CLint [5]: 540 mL min^–1 kg^–1
predicted hepatic clearance CLhep [5]: 20 mL min^–1 kg^–1
CLint scaled at 1 µM ([5]; liver microsomes, pH 7.4): 540 mL/min/kg
predicted CLhep (mL/min/kg) ([5]; well-stirred model from CLint, not corrected for fu plasma): human: 20 mL/min/kg
ACh fold shift (hM5 receptor [1]): 7- to 12 fold
activity at hM2 (in words) (hM2): no activity
selectivity over hM1 (hM1): greater than 10 fold

activity at hM5 (in words) (human M5 receptors; PAM, calcium mobilization): complete absence of activity
Compound: O=C(C1CCN(S(=O)(=O)c2ccc3[nH]ncc3c2)CC1)N(Cc1ccccc1C(F)(F)F)C1CC1 [9d]
change of intrinsic microsomal clearance (in words) ([3]; relative to the other analogs (rat CLint > 500)): reduce intrinsic microsomal clearance by an order of magnitude
